Assay results from patent publication US4666900A, “Anti-ulcer and anti-hypersecretion dibenzoimidazothiazepine derivatives, compositions, and method of use therefor” (John Wyeth & Brother Ltd., priority 1985, dated 1987).
Where two headings read alike, the source gives them in different places.

Test system: rabbit isolated gastric glands
Assay: Inhibition of secretagogue-stimulated C-aminopyrine uptake in rabbit isolated gastric glands (anti-secretory activity, H+/K+ ATPase)
Format: cell-based
Conditions: 10^-4 M test compound, % inhibition of maximum response to secretagogue; for inhibition at 100 µM: Oryctolagus cuniculus
Description: Compounds of formula I were tested for anti-secretory activity by their ability to inhibit the effect of one or two secretagogues on isolated gastric glands.
Potential inhibitors of the highly specific proton transporting enzyme H^+ /K^+ ATPase were evaluated by a technique involving the measurement of aminopyrine accumulation in rabbit isolated gastric glands. Aminopyrine accumulates in acid-secreting cells; therefore, uptake of aminopyrine is increased by secretagogues and an inhibitor of acid secretion will reduce the response to one or more secretagogues depending upon its site of action. Compounds which reduce the response to dibutyryl cyclic adenosine monophosphate (DBcAMP) stimulation are assumed to have an intracellular site of action, and those which reduce the response to both DBcAMP and high potassium ion concentration (K^+) are thought to have an intracellular site of action at the secretory surface of the parietal cell, involving the highly specific proton-transporting enzyme, H^+ /K^+ ATPase.
The following procedure is used:
Rabbit glands are isolated from gastric mucosa from the corpus region of the stomach by a method based on one described by Berglindh T., Obrink K. J., Acta Physiol. Scand. 96, 150-159 (1976). Measurement of aminopyrine uptake is carried out using a procedure based on the method described by Berglindh T., Hellander H. F., Obrink K. J. (ibid. 97 401-414, 1976).
Compounds are tested at a concentration of 10^-4 M, for their ability to inhibit C-aminopyrine uptake in gastric glands, stimulated by DBcAMP and high K^+ respectively. Results are expressed as the % inhibition of the maximum response to the secretagogue induced by the test compound.

[1] = high K+-stimulated aminopyrine uptake, read-out: % Inhibition to stimulation by: k+
[2] = DBcAMP-stimulated aminopyrine uptake, read-out: % Inhibition to stimulation by: DBcAMP

| Compound | % Inhibition to stimulation by: DBcAMP (DBcAMP-stimulated aminopyrine uptake) | inhibition at 100 µM [1] [%] | inhibition at 100 µM [2] [%] | % Inhibition to stimulation by: k+ (high K+-stimulated aminopyrine uptake) |
| --- | --- | --- | --- | --- |
| Cc1cc2nc3n(c2cc1C)Cc1ccccc1CS3 [8,13-Dihydro-4,5-dimethyldibenzo[d,h]imidazo[2,1-b][1,3]thiazepine] | ns | 80 | – | – |
| c1ccc2c(c1)CSc1nc3ccccc3n1C2 [8,13-Dihydrodibenzo[d,h]imidazo[2,1-b][1,3]thiazepine] | – | 94 | 32 | – |
| [O-][S+]1Cc2ccccc2Cn2c1nc1ccccc12 (stereo not drawn) [8,13-Dihydrodibenz[d,h]imidazo[2,1-b][1,3]thiazepine-1-oxide] | – | – | 31 | ns |
